Data on 43 compounds can be found in PubChem BioAssay (NCI).

For the assay, the system named is MDA-MB-468 breast. The experiment in a line: DTP human tumour cell line panel, 48 h.

In general, GI50 refers to the concentration giving 50% growth inhibition. Broadly, the TGI is the concentration at which net growth stops. Low values mean greater sensitivity of the cells, high ones lower sensitivity of the cells.

Several values for one entry are separate records, joined by “and”; a condition that tells them apart may be missing. Equal values may be shown once.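 48-hour exposure; five concentrations; linearly interpolated endpoints. GI50 marks 50% less growth. The concentration for full growth arrest is given as TGI.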 Where a SMILES comes first, the peptide text is derived from it. Bridges are numbered along the chain shown (N, C = ends). [ ]: non-standard residue; d: D form. ξ: configuration not given here. ξThr(3R) = C[C@@H](O)C(N)C(=O)O; S5 = C=CCCC[C@](C)(N)C(=O)O A value given as a limit tells only on which side of the number the result lay.

As for `NC(=O)CC1(O)C=C(Br)C(=O)C(Br)=C1`, the GI50 was 1.75 µM and the TGI is 7.22 µM.
As for `C[C@@H](NC(=O)c1ncnc(N)c1Cl)c1ncc(C(=O)Nc2cc(C(F)(F)F)c(Cl)cn2)s1`, the GI50 was 19.1 µM and the concentration for total growth inhibition (TGI) was found to be 52.5 µM.
In the case of `Nc1cc(C(F)(F)F)c(-c2cc(N3CCOCC3)nc(N3CCOCC3)n2)cn1`, the GI50 was 0.329 µM and 0.216 µM; the TGI is 2.5 µM and 1.41 µM.
Regarding `CCOC(=O)c1c(NC(=O)c2ccccc2)sc2c3c(ccc12)OCN(C)C3`, the GI50 is 1.52 µM and the TGI stood at 3.14 µM.
In the case of `CC[C@]1(O)CC2CN(CCc3c([nH]c4ccccc34)[C@@](C(=O)OC)(c3cc4c(cc3OC)N(C=O)[C@H]3[C@@](O)(C(=O)OC)[C@H](OC(C)=O)[C@]5(CC)C=CCN6CC[C@]43[C@@H]65)C2)C1` (stereo not given in full), the 50% growth inhibitory concentration (GI50) was less than 0.005 µM and the total growth inhibition concentration (TGI) is greater than 28.5 µM.
Take `COc1ccc(Cn2cc3c(c2)-c2oncc2CC3)cc1OC`: the concentration for 50% growth inhibition (GI50) was 0.0854 µM and the total growth inhibition concentration (TGI) turned out to be 0.254 µM.
On to `NC1=NC(=O)/C(=C/c2ccc3ncccc3c2)S1`, for which the GI50 is greater than 17.1 µM and the TGI was greater than 25 µM.
As for `CCOc1ccc2c(c1)CN(Cc1ccc(Cl)cc1)CO2`, the GI50 is 16.3 µM and the TGI stood at 34.9 µM.
As for `c1ccc(-c2n(Cc3ccc4ccccc4c3)cc[n+]2Cc2ccc3ccccc3c2)cc1`, the GI50 was 0.245 µM and the concentration for total growth inhibition (TGI) was found to be 1.18 µM.
As to `COc1ccccc1/C=C/C1=C(C)CCC(c2ccccc2OC)C1C` (stereo not given), the concentration for 50% growth inhibition (GI50) is 0.118 µM and the concentration for total growth inhibition (TGI) was greater than 100 µM.
For `COc1ccc2nc3cc([N+](=O)[O-])ccc3c(NNc3ccccc3)c2c1`, the GI50 is 0.616 µM and the concentration for total growth inhibition (TGI) is 5.37 µM.
Take `COc1cccc(C2=C(c3cn(C)c4cc(F)ccc34)C(=O)NC2=O)c1`: the GI50 was 13.5 µM and the TGI is greater than 25 µM.
Consider `O=C1c2cccnc2C(=O)c2c1c(C(=O)NCCn1ccnc1)c1ccccn21`, for which the GI50 was 2.34 µM and the TGI came out at 5.61 µM.
Take `O=C(Nc1cccc(-n2cc(-c3ccncc3)c(-c3ccc(O)c(Cl)c3)n2)c1)c1cc(C(F)(F)F)cc(C(F)(F)F)c1`: the GI50 is 3.8 µM and the total growth inhibition concentration (TGI) is 46 µM.
On to `CC(C)(C)NC(=O)[C@H]1CC[C@H]2[C@@H]3CC[C@H]4NC(=O)C=C[C@]4(C)[C@H]3CC[C@]12C`, for which the GI50 was 63 µM and > 100 µM; the TGI is greater than 100 µM.
Turning to `CN1CCN(c2ccc(NC(=O)c3cncnc3Nc3ccc(OCc4cccc(F)c4)c(Cl)c3)cc2)CC1`, the GI50 is 1.71 µM and the total growth inhibition concentration (TGI) is 8.75 µM.
For `Clc1ccc2ncc(-c3cccc(NC4CNC4)n3)n2c1` the same measures were 4.86 µM and 20.5 µM.
`Cc1nc(-c2cnc(NC(C)C)n(C)c2=O)ccc1Oc1ccnc(-c2cnn(C)c2)c1`: the GI50 was 3.01 µM and the TGI worked out at 73.9 µM.
As to `CCOC(=O)/C(C#N)=C1\SS/C(=C(/C#N)C(=O)OCC)S1`, the GI50 is 15.6 µM and the total growth inhibition concentration (TGI) was determined as 33 µM.
Regarding `OCc1ccc(N2CCc3cc(F)ccc3C2)cc1Cl`, the concentration for 50% growth inhibition (GI50) was 0.0101 µM and the TGI was less than 0.0182 µM.
Turning to `Cc1ccc(/C=C/c2c(C(=O)/C=C/c3ccc(Cl)cc3)c(C)nc3ccccc23)cc1`, the GI50 is 2.01 µM and the concentration for total growth inhibition (TGI) worked out at 3.82 µM.
Turning to `CC(c1ccccc1)[C@@H](C(=O)Nc1ccc(I)cc1F)N1C(=O)N[C@H](c2ccc(OC[C@H](O)CO)cc2)C1=O` (stereo not given in full), the GI50 is 11.5 µM and the TGI is greater than 25 µM.
In the case of `O=C1c2ccccc2C(=O)c2c1ccc1c(=O)n(-c3ccccc3C(F)(F)F)nnc21`, the GI50 is 1.43 µM and the TGI worked out at 3.71 µM.
Regarding `COc1cc(/C=C/C(=O)/C=C/c2cc3ccc(Cl)cc3n(Cc3ccccc3)c2=O)ccc1O`, the GI50 was 1.65 µM and the total growth inhibition concentration (TGI) is 5.2 µM.
Consider `O=C(Nc1ccc(-n2ccc3c(NC(=O)c4ccccc4)nccc32)cc1)Nc1cccc(C(F)(F)F)c1`, for which the GI50 was 2.47 µM and the TGI is 10.5 µM.
Turning to `Nc1nnnc2nc[nH]c12`, the GI50 was 0.369 µM.
`Cc1ccc(Cl)cc1NC(=O)c1cc2ccccc2cc1O`: the GI50 is 1.31 µM and the TGI was determined as 7.25 µM.
As for `COc1ccc(-c2[nH]nc(N)c2-c2cc(OC)c3c(c2)OCO3)cc1`, the GI50 was 1.86 µM and the TGI was determined as 6.28 µM.
Take `COc1ccc(C(=O)O[C@H]2[C@H](O[C@H]3[C@@H](O)COC(O[C@H]4C[C@H]5[C@@H]6CC=C7C[C@@H](O)CC[C@]7(C)[C@H]6CC[C@]5(C)[C@H]4[C@H](C)C(=O)CCC(C)C)[C@@H]3OC(C)=O)OC[C@@H](O)[C@@H]2O)c(C)c1` (stereo not given in full): the concentration for 50% growth inhibition (GI50) was 0.0104 µM and the TGI amounted to 4.89 µM.
Regarding `COc1ccc(-c2nn(-c3ccc(NC(=O)c4cc(Cl)cc(Cl)c4)cc3)cc2-c2ccncc2)cc1Cl`, the GI50 is 7.06 µM and the concentration for total growth inhibition (TGI) is greater than 100 µM.
For the compound `O=c1c2ccccc2nc(-c2ccccc2Cl)n1-c1nnc(C(F)(F)F)s1`, the GI50 was 2.29 µM and the total growth inhibition concentration (TGI) turned out to be 7.81 µM.
For `Cc1ccc(NC(=O)Nc2c(Cl)cccc2Cl)cn1`, the GI50 is 3.12 µM and the TGI worked out at 12.5 µM.
For the compound `NC(Cc1c[nH]c2ccc(F)cc12)C(=O)O` (stereo not given), the GI50 is 649 µM and the total growth inhibition concentration (TGI) was greater than 2500 µM.
Regarding `COc1ccc(Cl)cc1Nc1nc(C(F)(F)F)ccc1C(=O)N/N=C/c1cccnc1`, the GI50 is 0.797 µM and the TGI was found to be 4.66 µM.
As for `O=C(Cc1csc2nc(-c3ccc(Cl)cc3)cn12)N/N=C/c1ccccc1O`, the GI50 is 1.57 µM and the total growth inhibition concentration (TGI) was found to be 4.92 µM.
As for `Clc1ccc(Nc2nc(Nc3ccccc3)nc(Nc3ccc(-c4cc(-c5ccc(Cl)cc5)on4)cc3)n2)cc1`, the GI50 was 26 µM and the total growth inhibition concentration (TGI) was greater than 100 µM.
In the case of `COc1cc(/C=C/C(=O)N2CCC=CC2=O)cc(OC)c1OC`, the GI50 was 1.73 µM and the TGI is 4.7 µM.
For `CCCCCCCCCCCCCCCCCCOc1ccccc1CC(=O)OCC[N+](CC)(CC)CC` the same measures were 0.904 µM and 2.15 µM.
For the compound `CC(=O)N[C@H](C(=O)N[C@@H](CCCNC(=N)N)C(=O)N[C@@H](CCCCN)C(=O)N[C@@H](CCCNC(=N)N)C(=O)NC(C(=O)N[C@@H](CC(C)C)C(=O)N[C@@H](CCCNC(=N)N)C(=O)N[C@@]1(C)CCC/C=C\CCC[C@@](C)(C(=O)N[C@@H](CCCNC(=N)N)C(=O)N[C@@H](CCC(=O)O)C(=O)N[C@@H](CC(C)C)C(=O)N[C@H](C(=O)N[C@@H](CCC(=O)O)C(N)=O)C(C)C)NC(=O)[C@H](CCC(N)=O)NC(=O)[C@H](CC(C)C)NC(=O)[C@H](CC(C)C)NC1=O)[C@@H](C)O)C(C)C` (stereo partly drawn) (Ac-VRKR[ξThr(3R)]LR[S5]LLQ[S5]RELVE-NH2; staple (Z) 8-12), the GI50 is 7.65 µM and the total growth inhibition concentration (TGI) came out at 18.4 µM.
As for `CCN(CC)c1ccc2nc3c4ccccc4c(=O)cc-3n(-c3ccccc3)c2c1`, the GI50 is 0.333 µM and the total growth inhibition concentration (TGI) amounted to 1.98 µM.
Regarding `CCN(CC)CCC(CNc1ccnc2cc(Cl)ccc12)c1ccccc1` (stereo not given), the GI50 is 2.16 µM and the TGI was 5.69 µM.
Consider `C=C1C(=O)O[C@H]2[C@H]1CC/C(Cn1cc(-c3cccc(Cl)c3)nn1)=C\CC[C@@]1(C)O[C@@H]21`, for which the GI50 was 0.569 µM and the TGI stood at 2.14 µM.
With `Cc1ccc(-c2nc(N3CCNCC3)c3oc(-c4ccccc4)nc3n2)cc1`, the GI50 is 1.81 µM and the TGI is 3.8 µM.
